Data from ChEMBL document CHEMBL1909046, “DrugMatrix in vitro pharmacology data”.
*1 amine or outer side, *2 acyl side, *3 side chain or, on linkers, in order; H or OH if unused. Where a SMILES comes first, the peptide text is derived from it. Bridges are numbered along the chain shown (N, C = ends). Roman numbers before positions name the chains, in order. [ ]: non-standard residue; d: D form. Actinocin(1to9) = Cc1c2oc3c(C)ccc(C(=O)[*:2])c3nc-2c(C(=O)[*:1])c(N)c1=O; NMeV = CN[C@H](C(=O)O)C(C)C; Sar = CNCC(=O)O

Legend:
[1] = target: Beta-2 adrenergic receptor (Homo sapiens, UniProt P07550); assay: DRUGMATRIX: Adrenergic beta2 radioligand binding (ligand: [3H] CGP-12177); assay type: cell membranes, Membrane; conditions: cho; Not Active = under 50% inhibition at 10 µM
Chain of Beta-2 adrenergic receptor (P07550 whole entry): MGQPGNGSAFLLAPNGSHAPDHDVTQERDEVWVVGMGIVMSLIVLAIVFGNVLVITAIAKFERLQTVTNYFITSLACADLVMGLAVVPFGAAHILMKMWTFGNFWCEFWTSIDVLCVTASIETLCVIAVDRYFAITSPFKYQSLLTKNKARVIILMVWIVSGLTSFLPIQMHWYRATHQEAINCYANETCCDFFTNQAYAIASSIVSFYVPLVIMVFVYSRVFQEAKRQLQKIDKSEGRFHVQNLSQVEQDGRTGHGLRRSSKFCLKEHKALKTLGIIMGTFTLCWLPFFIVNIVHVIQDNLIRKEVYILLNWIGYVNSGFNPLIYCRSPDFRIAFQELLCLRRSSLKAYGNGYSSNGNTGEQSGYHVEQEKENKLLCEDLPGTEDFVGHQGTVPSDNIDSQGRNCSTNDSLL

[2] = target: Beta-3 adrenergic receptor (Homo sapiens, UniProt P13945); assay: DRUGMATRIX: Adrenergic beta3 radioligand binding (ligand: [125I] Cyanopindolol); assay type: cell membranes, HEK293, Membrane; conditions: Not Active = under 50% inhibition at 10 µM
Chain of Beta-3 adrenergic receptor (P13945 whole entry): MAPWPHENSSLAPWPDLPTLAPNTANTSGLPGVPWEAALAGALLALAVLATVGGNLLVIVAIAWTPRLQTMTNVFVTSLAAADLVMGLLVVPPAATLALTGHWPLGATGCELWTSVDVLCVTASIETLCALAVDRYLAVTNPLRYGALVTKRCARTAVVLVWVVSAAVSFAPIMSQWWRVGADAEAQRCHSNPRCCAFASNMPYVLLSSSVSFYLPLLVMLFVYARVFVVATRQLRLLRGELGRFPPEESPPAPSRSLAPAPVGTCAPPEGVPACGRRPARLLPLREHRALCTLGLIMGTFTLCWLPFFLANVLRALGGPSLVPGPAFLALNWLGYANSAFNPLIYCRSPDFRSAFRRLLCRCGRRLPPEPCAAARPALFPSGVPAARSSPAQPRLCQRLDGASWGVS

D(3) dopamine receptor = D(3) dopamine receptor (Homo sapiens, UniProt P35462); assay: DRUGMATRIX: Dopamine D3 radioligand binding (ligand: [3H] Spiperone); assay type: cell membranes, CHO, Membrane; conditions: for Ki: read-out: Ki
Chain of D(3) dopamine receptor (P35462 whole entry): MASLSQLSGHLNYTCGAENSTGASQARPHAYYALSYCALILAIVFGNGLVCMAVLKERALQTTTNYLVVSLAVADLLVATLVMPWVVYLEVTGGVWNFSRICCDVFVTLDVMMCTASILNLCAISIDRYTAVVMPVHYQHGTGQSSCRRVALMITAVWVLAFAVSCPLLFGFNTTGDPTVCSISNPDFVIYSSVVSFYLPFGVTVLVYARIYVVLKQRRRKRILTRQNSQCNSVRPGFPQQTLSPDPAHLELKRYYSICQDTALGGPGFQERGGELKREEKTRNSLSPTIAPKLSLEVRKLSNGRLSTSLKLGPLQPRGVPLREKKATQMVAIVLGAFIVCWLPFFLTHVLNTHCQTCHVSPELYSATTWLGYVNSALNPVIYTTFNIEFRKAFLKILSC

[3] = target: 5-hydroxytryptamine receptor 6 (Homo sapiens, UniProt P50406); assay type: cell membranes, HeLa, Membrane; conditions: for Ki: read-out: Ki; on all read-outs here: in other assays of this panel Not Active means under 50% inhibition at 10 µM
Chain of 5-hydroxytryptamine receptor 6 (P50406 whole entry): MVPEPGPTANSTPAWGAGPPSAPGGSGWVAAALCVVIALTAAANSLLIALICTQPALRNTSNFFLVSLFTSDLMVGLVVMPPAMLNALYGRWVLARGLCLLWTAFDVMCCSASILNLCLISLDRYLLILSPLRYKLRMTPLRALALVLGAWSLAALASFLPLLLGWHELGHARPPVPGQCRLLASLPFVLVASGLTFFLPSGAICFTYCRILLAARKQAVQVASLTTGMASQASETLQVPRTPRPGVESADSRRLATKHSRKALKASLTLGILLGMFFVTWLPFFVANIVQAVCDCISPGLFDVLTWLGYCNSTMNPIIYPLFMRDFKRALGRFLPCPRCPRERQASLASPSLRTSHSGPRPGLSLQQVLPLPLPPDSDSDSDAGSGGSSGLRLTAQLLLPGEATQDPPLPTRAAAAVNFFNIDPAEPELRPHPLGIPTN

[4] = target: T1, Type-2 angiotensin II receptor (Homo sapiens, UniProt P50052); assay type: cell-based; conditions: cho-k1; further: in other assays of this panel Not Active means under 50% inhibition at 10 µM
T1 sequence (P50052 whole entry): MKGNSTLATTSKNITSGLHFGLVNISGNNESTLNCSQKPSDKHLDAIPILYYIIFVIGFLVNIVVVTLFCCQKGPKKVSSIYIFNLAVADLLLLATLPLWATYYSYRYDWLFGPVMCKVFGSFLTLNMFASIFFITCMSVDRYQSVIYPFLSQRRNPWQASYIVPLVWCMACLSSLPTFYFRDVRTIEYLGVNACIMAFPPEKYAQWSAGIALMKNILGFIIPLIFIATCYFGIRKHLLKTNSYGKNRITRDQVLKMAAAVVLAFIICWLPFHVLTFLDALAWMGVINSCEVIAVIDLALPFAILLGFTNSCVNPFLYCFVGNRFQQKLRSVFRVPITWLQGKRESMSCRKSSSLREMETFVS

[5] = DRUGMATRIX: Glutamate, NMDA, Agonism radioligand binding (ligand: [3H] CGP-39653); assay type: cell membranes, Rattus norvegicus, Wistar, Cerebral cortex, Membrane; conditions: Not Active = under 50% inhibition at 10 µM

SMILES | IC50 [1] | IC50 ([2]; hek293) | IC50 (D(3) dopamine receptor; cho) | IC50 ([3]; hela) | IC50 [4] | IC50 [5] | Ki [5] | IC50 ([2]; read-out: IC50) [nM] | Ki ([2]; read-out: Ki) [nM] | IC50 (D(3) dopamine receptor; read-out: IC50) [nM] | Ki (D(3) dopamine receptor) [nM] | IC50 ([3]; read-out: IC50) [nM] | Ki [3] [nM]
C[C@H](CCC(=O)O)[C@H]1CC[C@H]2[C@@H]3[C@H](O)C[C@@H]4C[C@H](O)CC[C@]4(C)[C@H]3C[C@H](O)[C@]12C [CHOLIC ACID] | Not Active | Not Active | Not Active | Not Active | Not Active | Not Active | Not Active | – | – | – | – | – | –
Cc1cc(C2CCCCC2)n(O)c(=O)c1 [CICLOPIROX] | Not Active | Not Active | Not Active | Not Active | Not Active | Not Active | Not Active | – | – | – | – | – | –
CC1=C2C(=CO[C@H](C)[C@H]2C)C(O)=C(C(=O)O)C1=O [CITRININ] | Not Active | Not Active | Not Active | Not Active | Not Active | Not Active | Not Active | – | – | – | – | – | –
CC(C)(Oc1ccc(Cl)cc1)C(=O)O [CLOFIBRIC ACID] | Not Active | Not Active | Not Active | Not Active | Not Active | Not Active | Not Active | – | – | – | – | – | –
Clc1cccc(Cl)c1NC1=NCCN1 [CLONIDINE] | Not Active | Not Active | Not Active | Not Active | Not Active | Not Active | Not Active | – | – | – | – | – | –
Cc1cc(C(C#N)c2ccc(Cl)cc2)c(Cl)cc1NC(=O)c1cc(I)cc(I)c1O (stereo not drawn) [CLOSANTEL] | Not Active | Not Active | Not Active | Not Active | Not Active | Not Active | Not Active | – | – | – | – | – | –
Cc1onc(-c2ccccc2Cl)c1C(=O)N[C@@H]1C(=O)N2[C@@H]1SC(C)(C)[C@@H]2C(=O)O [CLOXACILLIN] | Not Active | Not Active | Not Active | Not Active | Not Active | Not Active | Not Active | – | – | – | – | – | –
CC1CC(OC(=O)C(O)c2ccccc2)CC(C)(C)C1 (stereo not drawn) [CYCLANDELATE] | Not Active | Not Active | Not Active | Not Active | Not Active | Not Active | Not Active | – | – | – | – | – | –
Cc1c2oc3c(C)ccc(C(=O)N[C@@H]4C(=O)N[C@H](C(C)C)C(=O)N5CCC[C@H]5C(=O)N(C)CC(=O)N(C)[C@@H](C(C)C)C(=O)O[C@@H]4C)c3nc-2c(C(=O)N[C@@H]2C(=O)N[C@H](C(C)C)C(=O)N3CCC[C@H]3C(=O)N(C)CC(=O)N(C)[C@@H](C(C)C)C(=O)O[C@@H]2C)c(N)c1=O [DACTINOMYCIN] (I: T[dV]P[Sar][NMeV] / II: T[dV]P[Sar][NMeV]; ester I:1-I:C, II:1-II:C; linker I:N-II:N via Actinocin(1to9)) | Not Active | Not Active | Not Active | Not Active | Not Active | Not Active | Not Active | – | – | – | – | – | –
Cc1c(O)c(=O)ccn1C [DEFERIPRONE] | Not Active | Not Active | Not Active | Not Active | Not Active | Not Active | Not Active | – | – | – | – | – | –
O=c1oc2ccccc2c(O)c1Cc1c(O)c2ccccc2oc1=O [DICUMAROL] | Not Active | Not Active | Not Active | Not Active | Not Active | Not Active | Not Active | – | – | – | – | – | –
C[C@H]1O[C@@H](O[C@H]2[C@@H](O)C[C@H](O[C@H]3[C@@H](O)C[C@H](O[C@H]4CC[C@@]5(C)[C@H](CC[C@@H]6[C@@H]5C[C@@H](O)[C@]5(C)[C@@H](C7=CC(=O)OC7)CC[C@]65O)C4)O[C@@H]3C)O[C@@H]2C)C[C@H](O)[C@@H]1O [DIGOXIN] | Not Active | Not Active | Not Active | Not Active | Not Active | Not Active | Not Active | – | – | – | – | – | –
CC(C)[C@@]1(NC(=O)[C@@H]2C[C@@H]3c4cccc5[nH]cc(c45)C[C@H]3N(C)C2)O[C@@]2(O)[C@@H]3CCCN3C(=O)[C@H](Cc3ccccc3)N2C1=O.CS(=O)(=O)O [DIHYDROERGOCRISTINE MESYLATE] | Not Active | – | – | – | Not Active | Not Active | Not Active | 3310 | 2480 | 2.29 | 0.777 | 42 | 19
CC(=O)O[C@@]12CO[C@@H]1C[C@H](O)[C@@]1(C)C(=O)[C@H](O)C3=C(C)[C@@H](OC(=O)[C@H](O)[C@@H](NC(=O)OC(C)(C)C)c4ccccc4)C[C@@](O)([C@@H](OC(=O)c4ccccc4)[C@H]21)C3(C)C.O.O.O [DOCETAXEL] | Not Active | Not Active | Not Active | Not Active | Not Active | Not Active | Not Active | – | – | – | – | – | –
C[C@H]1c2cccc(O)c2C(=O)C2=C(O)[C@]3(O)C(=O)C(C(N)=O)=C(O)[C@@H](N(C)C)[C@@H]3[C@@H](O)[C@@H]21.O [DOXYCYCLINE] | Not Active | Not Active | Not Active | Not Active | Not Active | Not Active | Not Active | – | – | – | – | – | –
O=C(CCCN1CC=C(n2c(=O)[nH]c3ccccc32)CC1)c1ccc(F)cc1 [DROPERIDOL] | Not Active | Not Active | – | Not Active | Not Active | Not Active | Not Active | – | – | 2.77 | 0.939 | – | –
CC(C)[C@H]1C(=O)N2CCC[C@H]2[C@]2(O)O[C@](NC(=O)[C@@H]3C=C4c5cccc6[nH]cc(c56)C[C@H]4N(C)C3)(C(C)C)C(=O)N12 [ERGOCORNINE] | Not Active | Not Active | – | – | Not Active | Not Active | Not Active | – | – | 2.86 | 0.971 | 15 | 7.09
C[C@]12CC[C@@H]3c4ccc(O)cc4CC[C@H]3[C@@H]1CCC2=O [ESTRONE] | Not Active | Not Active | Not Active | Not Active | Not Active | Not Active | Not Active | – | – | – | – | – | –
OC(Cn1cncn1)(Cn1cncn1)c1ccc(F)cc1F [FLUCONAZOLE] | Not Active | Not Active | Not Active | Not Active | Not Active | Not Active | Not Active | – | – | – | – | – | –
CC(C)C(=O)Nc1ccc([N+](=O)[O-])c(C(F)(F)F)c1 [FLUTAMIDE] | Not Active | Not Active | Not Active | – | Not Active | Not Active | Not Active | – | – | – | – | 17800 | 8270
N=C(N)NCCN1CCCCCCC1 [GUANETHIDINE] | Not Active | Not Active | Not Active | Not Active | Not Active | Not Active | Not Active | – | – | – | – | – | –
CC1(C)O[C@@H]2C[C@H]3[C@@H]4CCC5=CC(=O)CC[C@]5(C)[C@@]4(F)[C@@H](O)C[C@]3(C)[C@]2(C(=O)CCl)O1 [HALCINONIDE] | Not Active | Not Active | Not Active | Not Active | Not Active | Not Active | Not Active | – | – | – | – | – | –
O=c1[nH]c(=O)n([C@H]2C[C@H](O)[C@@H](CO)O2)cc1I [IDOXURIDINE] | Not Active | Not Active | Not Active | Not Active | Not Active | Not Active | Not Active | – | – | – | – | – | –
